Tests used:
KDR/VEGFR2 = molecular target: T1, KDR/VEGFR2 (Homo sapiens, UniProt P35968); assay: […]-ATP kinase assay, P81 filter binding; format: biochemical
T1 construct: Reaction Biology kinase panel

PBK/TOPK = molecular target: T2, PBK/TOPK (Homo sapiens, UniProt Q96KB5); assay: […]-ATP kinase assay, P81 filter binding; format: biochemical
T2 construct: Reaction Biology kinase panel
T2 sequence (Q96KB5 1-322): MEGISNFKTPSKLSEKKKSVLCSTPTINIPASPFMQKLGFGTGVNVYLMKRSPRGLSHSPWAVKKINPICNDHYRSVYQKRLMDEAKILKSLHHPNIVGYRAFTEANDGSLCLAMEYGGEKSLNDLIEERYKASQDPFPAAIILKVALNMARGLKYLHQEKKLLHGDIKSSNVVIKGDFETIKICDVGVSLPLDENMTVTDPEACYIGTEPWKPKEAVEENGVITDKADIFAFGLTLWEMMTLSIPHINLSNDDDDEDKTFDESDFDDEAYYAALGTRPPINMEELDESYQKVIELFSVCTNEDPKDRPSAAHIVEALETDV

RON/MST1R = molecular target: T3, RON/MST1R (Homo sapiens, UniProt Q04912); assay: […]-ATP kinase assay, P81 filter binding; format: biochemical
T3 construct: Reaction Biology kinase panel
T3 sequence (Q04912 979-1400 limits assumed): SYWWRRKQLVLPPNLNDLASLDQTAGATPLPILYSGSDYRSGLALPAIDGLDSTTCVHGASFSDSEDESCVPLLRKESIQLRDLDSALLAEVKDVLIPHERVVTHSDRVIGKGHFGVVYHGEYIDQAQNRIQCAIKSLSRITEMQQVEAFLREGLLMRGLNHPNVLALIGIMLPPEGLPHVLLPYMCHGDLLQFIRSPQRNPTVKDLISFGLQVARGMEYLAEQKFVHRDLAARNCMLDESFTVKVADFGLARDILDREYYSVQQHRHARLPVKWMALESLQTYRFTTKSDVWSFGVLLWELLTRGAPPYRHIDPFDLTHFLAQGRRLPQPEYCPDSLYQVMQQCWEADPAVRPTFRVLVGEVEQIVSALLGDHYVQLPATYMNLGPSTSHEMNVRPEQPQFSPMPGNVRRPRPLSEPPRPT

MNK1 = molecular target: T4, MNK1 (Homo sapiens, UniProt Q9BUB5); assay: […]-ATP kinase assay, P81 filter binding; format: biochemical
T4 construct: gene MKNK1; Reaction Biology kinase panel
T4 sequence (Q9BUB5 whole entry): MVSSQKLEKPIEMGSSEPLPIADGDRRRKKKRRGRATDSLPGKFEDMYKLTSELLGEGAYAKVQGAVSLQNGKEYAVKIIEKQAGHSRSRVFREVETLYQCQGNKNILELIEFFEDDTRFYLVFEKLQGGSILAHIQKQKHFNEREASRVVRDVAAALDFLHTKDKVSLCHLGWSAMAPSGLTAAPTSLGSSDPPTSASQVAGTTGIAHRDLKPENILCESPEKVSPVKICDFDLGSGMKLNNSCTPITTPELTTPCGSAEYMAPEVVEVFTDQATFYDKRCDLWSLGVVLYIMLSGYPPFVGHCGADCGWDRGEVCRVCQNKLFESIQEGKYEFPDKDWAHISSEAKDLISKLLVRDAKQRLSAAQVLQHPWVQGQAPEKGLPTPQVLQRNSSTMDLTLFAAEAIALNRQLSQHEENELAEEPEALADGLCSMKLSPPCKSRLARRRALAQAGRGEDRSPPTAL

MUSK = molecular target: T5, MUSK (Homo sapiens, UniProt O15146); assay: […]-ATP kinase assay, P81 filter binding; format: biochemical
T5 construct: Reaction Biology kinase panel
T5 sequence (O15146 517-869 limits assumed): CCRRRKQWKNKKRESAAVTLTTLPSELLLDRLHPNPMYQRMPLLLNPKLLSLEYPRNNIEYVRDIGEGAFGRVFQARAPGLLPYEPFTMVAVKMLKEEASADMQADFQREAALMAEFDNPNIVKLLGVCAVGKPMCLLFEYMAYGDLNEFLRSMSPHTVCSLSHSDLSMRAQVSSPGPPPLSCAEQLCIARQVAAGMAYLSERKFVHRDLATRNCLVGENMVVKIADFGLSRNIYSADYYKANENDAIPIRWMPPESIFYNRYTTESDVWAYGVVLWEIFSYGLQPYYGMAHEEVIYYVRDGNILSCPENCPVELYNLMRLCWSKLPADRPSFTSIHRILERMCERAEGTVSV

NEK6 = molecular target: T6, NEK6 (Homo sapiens, UniProt Q9HC98); assay: […]-ATP kinase assay, P81 filter binding; format: biochemical
T6 construct: Reaction Biology kinase panel
T6 sequence (Q9HC98 whole entry): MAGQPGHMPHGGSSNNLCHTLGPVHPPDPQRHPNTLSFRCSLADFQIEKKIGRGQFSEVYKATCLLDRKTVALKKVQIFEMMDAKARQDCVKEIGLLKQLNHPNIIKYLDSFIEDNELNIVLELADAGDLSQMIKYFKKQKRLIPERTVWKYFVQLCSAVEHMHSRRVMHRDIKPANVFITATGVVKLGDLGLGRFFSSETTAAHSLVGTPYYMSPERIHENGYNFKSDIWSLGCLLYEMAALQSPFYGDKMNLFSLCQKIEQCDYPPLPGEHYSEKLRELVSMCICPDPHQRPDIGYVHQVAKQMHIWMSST

PI3Kγ = molecular target: T7, PI3Kγ (Homo sapiens, UniProt P48736); assay: kinase inhibition assay; format: biochemical
T7 construct: gene PIK3CG; commercial kinase
Description: kinase inhibition assay on PI3Kγ

KHS/MAP4K5 = molecular target: T8, KHS/MAP4K5 (Homo sapiens, UniProt Q9Y4K4); assay: […]-ATP kinase assay, P81 filter binding; format: biochemical
T8 construct: Reaction Biology kinase panel

CDK5/p25 = molecular target: T9, CDK5/p25 (Homo sapiens, UniProt Q00535); assay: […]-ATP kinase assay, P81 filter binding; format: biochemical
T9 construct: Reaction Biology kinase panel; complex with p25, the C-terminal fragment of p35
T9 sequence (Q00535 whole entry, the tested form may be a part): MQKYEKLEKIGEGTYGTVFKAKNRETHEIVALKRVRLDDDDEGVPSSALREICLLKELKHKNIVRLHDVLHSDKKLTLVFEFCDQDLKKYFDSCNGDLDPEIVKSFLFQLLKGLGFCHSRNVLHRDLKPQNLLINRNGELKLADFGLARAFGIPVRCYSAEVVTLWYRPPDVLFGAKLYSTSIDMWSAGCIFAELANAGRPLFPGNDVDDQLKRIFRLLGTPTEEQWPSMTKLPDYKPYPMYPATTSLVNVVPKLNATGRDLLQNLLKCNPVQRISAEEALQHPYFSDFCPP
T9 sequence (Q15078 99-307 partner limits assumed): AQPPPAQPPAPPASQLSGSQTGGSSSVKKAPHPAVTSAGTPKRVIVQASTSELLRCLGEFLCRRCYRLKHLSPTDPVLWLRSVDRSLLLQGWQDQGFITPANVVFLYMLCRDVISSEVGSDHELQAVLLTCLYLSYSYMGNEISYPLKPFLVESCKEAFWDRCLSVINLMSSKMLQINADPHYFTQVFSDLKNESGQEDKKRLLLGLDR

PI3Kα = molecular target: T10, PI3Kα (Homo sapiens, UniProt P42336); assay: kinase inhibition assay; format: biochemical
T10 construct: gene PIK3CA; commercial kinase; with Phosphatidylinositol 3-kinase regulatory subunit alpha
T10 sequence (P42336 whole entry): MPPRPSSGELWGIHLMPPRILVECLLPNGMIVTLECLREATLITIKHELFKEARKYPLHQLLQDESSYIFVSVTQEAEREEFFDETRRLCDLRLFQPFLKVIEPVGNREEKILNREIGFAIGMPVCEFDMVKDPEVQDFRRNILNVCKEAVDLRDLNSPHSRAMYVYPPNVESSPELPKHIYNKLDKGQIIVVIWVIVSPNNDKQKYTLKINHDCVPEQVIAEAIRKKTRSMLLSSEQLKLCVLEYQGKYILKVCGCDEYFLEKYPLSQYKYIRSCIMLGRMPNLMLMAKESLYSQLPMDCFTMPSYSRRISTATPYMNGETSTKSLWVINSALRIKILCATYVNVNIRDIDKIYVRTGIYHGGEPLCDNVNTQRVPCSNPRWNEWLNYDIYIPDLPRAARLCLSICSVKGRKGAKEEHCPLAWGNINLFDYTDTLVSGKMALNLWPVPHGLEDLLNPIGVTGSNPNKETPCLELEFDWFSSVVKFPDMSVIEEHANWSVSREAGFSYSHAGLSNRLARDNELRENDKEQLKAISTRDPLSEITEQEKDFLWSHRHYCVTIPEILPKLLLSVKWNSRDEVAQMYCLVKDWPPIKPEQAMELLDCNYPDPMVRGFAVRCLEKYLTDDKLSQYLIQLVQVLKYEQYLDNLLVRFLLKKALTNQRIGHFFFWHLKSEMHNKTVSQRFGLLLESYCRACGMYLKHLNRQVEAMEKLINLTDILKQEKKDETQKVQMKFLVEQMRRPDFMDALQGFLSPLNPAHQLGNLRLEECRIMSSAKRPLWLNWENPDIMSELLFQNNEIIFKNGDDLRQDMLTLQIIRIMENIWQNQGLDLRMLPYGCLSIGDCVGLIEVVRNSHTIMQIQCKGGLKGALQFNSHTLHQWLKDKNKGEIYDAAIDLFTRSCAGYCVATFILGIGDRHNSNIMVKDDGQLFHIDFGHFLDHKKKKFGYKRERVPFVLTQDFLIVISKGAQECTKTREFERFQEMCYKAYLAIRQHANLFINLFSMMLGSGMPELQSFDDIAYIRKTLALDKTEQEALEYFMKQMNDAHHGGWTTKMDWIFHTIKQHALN
T10 sequence (P27986 2-724 partner): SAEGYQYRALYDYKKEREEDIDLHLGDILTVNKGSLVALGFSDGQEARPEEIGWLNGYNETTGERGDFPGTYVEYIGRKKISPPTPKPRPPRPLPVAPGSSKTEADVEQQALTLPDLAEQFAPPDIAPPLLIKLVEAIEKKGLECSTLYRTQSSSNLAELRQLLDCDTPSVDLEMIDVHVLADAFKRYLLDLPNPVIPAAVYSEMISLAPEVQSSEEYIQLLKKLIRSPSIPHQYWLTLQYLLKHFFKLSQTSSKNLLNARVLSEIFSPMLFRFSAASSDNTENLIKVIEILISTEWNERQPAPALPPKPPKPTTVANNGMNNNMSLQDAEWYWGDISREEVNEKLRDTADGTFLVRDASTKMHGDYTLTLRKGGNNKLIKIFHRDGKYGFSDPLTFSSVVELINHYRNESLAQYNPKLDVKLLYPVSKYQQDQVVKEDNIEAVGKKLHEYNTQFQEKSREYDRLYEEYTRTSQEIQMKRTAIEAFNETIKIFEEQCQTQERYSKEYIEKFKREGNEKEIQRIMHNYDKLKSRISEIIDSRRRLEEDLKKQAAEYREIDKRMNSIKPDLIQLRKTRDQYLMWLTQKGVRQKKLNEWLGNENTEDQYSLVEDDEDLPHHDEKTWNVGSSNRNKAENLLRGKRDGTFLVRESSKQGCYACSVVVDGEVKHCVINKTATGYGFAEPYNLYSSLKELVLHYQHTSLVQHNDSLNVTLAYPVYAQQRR
Description: kinase inhibition assay on PI3Kα

CK1ε [1] = molecular target: T11, CK1ε (Homo sapiens, UniProt P49674); assay: pull-down on orobol-Sepharose 4B beads, immunoblot; format: binding; conditions: orobol coupled to beads; pH 7.5, 4 °C; competed by ATP
T11 construct: gene CSNK1E; commercial active kinase; Reaction Biology panel for activity, SignalChem protein for pull-down
T11 sequence (P49674 whole entry): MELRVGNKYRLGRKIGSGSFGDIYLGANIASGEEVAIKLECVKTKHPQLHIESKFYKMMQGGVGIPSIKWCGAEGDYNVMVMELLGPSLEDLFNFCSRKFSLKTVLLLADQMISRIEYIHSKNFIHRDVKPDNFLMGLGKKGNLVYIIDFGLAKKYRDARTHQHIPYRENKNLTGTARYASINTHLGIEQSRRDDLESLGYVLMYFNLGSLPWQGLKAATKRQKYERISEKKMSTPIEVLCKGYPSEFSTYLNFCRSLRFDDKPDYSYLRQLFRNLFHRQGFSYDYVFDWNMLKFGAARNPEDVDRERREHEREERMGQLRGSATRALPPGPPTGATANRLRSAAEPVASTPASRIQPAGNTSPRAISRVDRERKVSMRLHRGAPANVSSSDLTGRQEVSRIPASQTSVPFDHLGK

TNIK = molecular target: T12, TNIK (Homo sapiens, UniProt Q9UKE5); assay: […]-ATP kinase assay, P81 filter binding; format: biochemical
T12 construct: Reaction Biology kinase panel
T12 sequence (Q9UKE5 whole entry): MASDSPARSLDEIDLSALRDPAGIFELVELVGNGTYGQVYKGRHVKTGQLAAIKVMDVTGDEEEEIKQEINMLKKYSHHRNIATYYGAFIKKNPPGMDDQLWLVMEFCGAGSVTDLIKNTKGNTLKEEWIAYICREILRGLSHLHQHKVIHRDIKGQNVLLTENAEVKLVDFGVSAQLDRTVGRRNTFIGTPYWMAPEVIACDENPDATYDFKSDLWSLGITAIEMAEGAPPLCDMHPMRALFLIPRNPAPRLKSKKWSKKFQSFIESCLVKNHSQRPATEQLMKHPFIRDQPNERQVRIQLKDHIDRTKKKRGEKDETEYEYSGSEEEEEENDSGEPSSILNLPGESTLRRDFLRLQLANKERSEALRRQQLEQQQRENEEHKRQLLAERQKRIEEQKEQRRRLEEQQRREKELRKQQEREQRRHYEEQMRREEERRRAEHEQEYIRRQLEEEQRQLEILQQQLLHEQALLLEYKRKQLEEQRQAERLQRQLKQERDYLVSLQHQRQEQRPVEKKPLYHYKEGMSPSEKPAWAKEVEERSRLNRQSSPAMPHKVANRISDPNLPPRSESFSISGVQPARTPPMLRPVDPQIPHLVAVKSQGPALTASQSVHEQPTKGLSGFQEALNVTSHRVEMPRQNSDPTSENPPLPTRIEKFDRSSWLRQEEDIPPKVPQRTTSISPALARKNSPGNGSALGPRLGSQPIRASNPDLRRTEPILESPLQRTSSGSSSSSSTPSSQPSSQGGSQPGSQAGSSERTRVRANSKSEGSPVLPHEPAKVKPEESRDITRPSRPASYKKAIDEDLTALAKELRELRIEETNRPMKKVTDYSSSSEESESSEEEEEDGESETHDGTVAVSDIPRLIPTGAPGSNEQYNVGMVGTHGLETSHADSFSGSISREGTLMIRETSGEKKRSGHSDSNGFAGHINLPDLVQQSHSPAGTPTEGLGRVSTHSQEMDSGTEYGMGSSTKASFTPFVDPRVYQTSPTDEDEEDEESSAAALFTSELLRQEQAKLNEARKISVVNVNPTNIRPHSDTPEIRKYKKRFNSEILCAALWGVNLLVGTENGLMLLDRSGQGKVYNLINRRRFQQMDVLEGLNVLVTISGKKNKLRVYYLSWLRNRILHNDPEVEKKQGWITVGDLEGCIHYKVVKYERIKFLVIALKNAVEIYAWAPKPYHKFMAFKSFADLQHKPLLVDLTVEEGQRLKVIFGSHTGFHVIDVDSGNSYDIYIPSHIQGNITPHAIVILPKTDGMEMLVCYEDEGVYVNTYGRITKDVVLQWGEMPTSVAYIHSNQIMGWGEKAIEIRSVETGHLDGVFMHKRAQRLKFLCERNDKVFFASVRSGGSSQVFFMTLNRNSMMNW

CK1ε [2] = molecular target: T13, CK1ε (Mus musculus, UniProt Q9JMK2); assay: pull-down from 3T3-L1 lysate on orobol-Sepharose 4B beads, immunoblot; format: biochemical; conditions: orobol coupled to beads; pH 7.5, 4 °C
T13 construct: gene Csnk1e; endogenous protein in 3T3-L1 preadipocyte lysate, detected with anti-CK1ε antibody
T13 sequence (Q9JMK2 1-416): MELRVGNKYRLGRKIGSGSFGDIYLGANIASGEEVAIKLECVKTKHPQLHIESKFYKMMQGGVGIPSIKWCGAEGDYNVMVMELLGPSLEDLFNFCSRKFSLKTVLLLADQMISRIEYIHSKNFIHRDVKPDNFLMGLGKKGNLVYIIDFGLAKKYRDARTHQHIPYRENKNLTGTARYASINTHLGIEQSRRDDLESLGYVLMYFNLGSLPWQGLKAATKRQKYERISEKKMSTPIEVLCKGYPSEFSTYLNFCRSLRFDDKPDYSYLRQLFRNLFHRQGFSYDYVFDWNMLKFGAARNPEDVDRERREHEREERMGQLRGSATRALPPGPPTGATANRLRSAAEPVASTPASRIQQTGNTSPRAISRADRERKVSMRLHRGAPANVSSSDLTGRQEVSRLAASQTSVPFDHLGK

PI3Kδ = molecular target: T14, PI3Kδ (Homo sapiens, UniProt O00329); assay: kinase inhibition assay; format: biochemical
T14 construct: gene PIK3CD; commercial kinase; with Phosphatidylinositol 3-kinase regulatory subunit alpha
Description: kinase inhibition assay on PI3Kδ

CK1ε [3] = molecular target: T11, CK1ε; assay: […]-ATP kinase assay, P81 filter binding; format: biochemical
PI3Kβ = molecular target: T15, PI3Kβ (Homo sapiens, UniProt P42338); assay: kinase inhibition assay; format: biochemical
T15 construct: gene PIK3CB; commercial kinase; with Phosphatidylinositol 3-kinase regulatory subunit alpha
Description: kinase inhibition assay on PI3Kβ

Compound `O=c1c(-c2ccc(O)c(O)c2)coc2cc(O)cc(O)c12` [orobol] has an IC50 (KDR/VEGFR2) of 4.45 µM, an IC50 (PBK/TOPK) of 1.67 µM and an activity at 1 µM (RON/MST1R) of 78%. For the same compound, the IC50 (MNK1) was 2.13 µM, the IC50 (MUSK) was 1.48 µM and the activity at 1 µM (NEK6) was 79%. For the same compound, the IC50 (PI3Kγ) was 4.76 µM, the IC50 (KHS/MAP4K5) was 1.42 µM and the activity at 1 µM (CDK5/p25) was 78%. The IC50 (PI3Kα) was 3.46 µM, the “pull-down on orobol-Sepharose 4B beads, immunoblot” value (CK1ε [1]) was “The CK1ε kinase bound to orobol–sepharose 4B beads, but not to control sepharose 4B beads” and the IC50 (TNIK) was 1.54 µM. For the same compound, the “pull-down from 3T3-L1 lysate on orobol-Sepharose 4B beads, immunoblot” value (CK1ε [2]) was “Orobol directly interacts with CK1ε in 3T3-L1 cell lysates”, the IC50 (PI3Kδ) was 5.27 µM and the IC50 (CK1ε [3]) was 1.24 µM. For the same compound, the IC50 (PI3Kβ) was 5.44 µM.

From publication PMC6586855, “Orobol, an Enzyme-Convertible Product of Genistein, exerts Anti-Obesity Effects by Targeting Casein Kinase 1 Epsilon” (Scientific Reports, 2019)
